What was measured:
[1] = target: intracellular phosphorylation of EGFR (Tyr1068) in PC-9 cells (Homo sapiens, UniProt P00533, DEL746-750); experiment: PC-9 pEGFR AlphaLISA assay; type: cell-based; conditions: 4 hours incubation, read-out: Phos EGFR PC9 IC50
How it was run: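 PC-9 cells (EGFR del746-750) in phenol-free DMEM/10% FBS, adhered overnight, then exposed to 10-point 4-fold compound dilutions for 4 h at 37 °C. Lysates assayed for pEGFR Tyr1068 by AlphaLISA SureFire Ultra; IC50 from percent pEGFR inhibition vs log concentration.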

EGFR (d746-750) = target: T1, EGFR (d746-750) (Homo sapiens, UniProt P00533, DEL746-750); experiment: Biochemical EGFR inhibition assay (Caliper mobility shift), EGFR (d746-750); conditions: biochemical Caliper mobility shift assay, EGFR Exon 19-del enzyme; read-out: Enz EGFR Exon 19-del IC50
T1 construct: purchased SignalChem E10-122JG
T1 sequence (P00533 with tags, fused parts or gaps DEL746-750 limits assumed): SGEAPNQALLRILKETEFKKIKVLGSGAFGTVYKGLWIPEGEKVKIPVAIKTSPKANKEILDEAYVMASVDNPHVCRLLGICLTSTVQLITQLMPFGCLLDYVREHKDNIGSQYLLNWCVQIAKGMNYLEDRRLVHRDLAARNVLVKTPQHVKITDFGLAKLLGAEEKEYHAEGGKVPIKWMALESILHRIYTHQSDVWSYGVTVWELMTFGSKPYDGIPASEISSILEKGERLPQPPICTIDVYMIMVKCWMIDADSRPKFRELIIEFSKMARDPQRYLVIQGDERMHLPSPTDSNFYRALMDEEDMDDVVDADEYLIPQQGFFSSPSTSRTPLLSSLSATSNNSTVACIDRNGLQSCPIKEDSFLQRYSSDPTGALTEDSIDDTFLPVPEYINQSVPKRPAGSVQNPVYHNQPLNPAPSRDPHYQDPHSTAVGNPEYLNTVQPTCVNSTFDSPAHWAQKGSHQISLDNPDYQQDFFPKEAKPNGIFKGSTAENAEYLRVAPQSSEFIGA
Procedure: Inhibitory effects of the compounds of the disclosure were measured in biochemical assays that measure the phosphorylation activity of EGFR enzyme phosphorylates 2.5 micromolar 5-FAM-[…]-CONH2 peptide substrate (ProfilerPro Kinase Peptide Substrate 22, PerkinElmer, Part #760366) in the presence of adenosine-5′-triphosphate (ATP) and varying concentrations of the test compound in 100 mM 2-[4-(2-hydroxyethyl)piperazin-1-yl]ethanesulfonic acid (HEPES), pH 7.5, 10 mM MgCl2, 0.015% Brij-35, 1 mM dithiothreitol (DTT), 1.0% dimehylsulfoxide (DMSO). Assays were performed at 1.0 mM ATP or at ATP Km of the EGFR enzymes. Reactions proceeded until between 10% to 20% total peptides were phosphorylated at room temperature (25° C.) and were terminated with 35 mM 2,2′,2″,2′″-(ethane-1,2-diyldinitrilo)tetraacetic acid (EDTA). Product was detected using the Caliper mobility shift detection method where the phosphorylated peptide (product) and substrate were electrophoretically separated and measured. Percent activity was plotted against log concentration of compound and points to generate an apparent IC50. The following enzyme forms of • EGFR were examples that were used in these assays: • EGFR WT (SignalChem, E10-112G) • EGFR L858R (SignalChem, E10-122BG) • EGFR (d746-750) (SignalChem, E10-122JG) • EGFR L858R C797S (SignalChem, E10-122ZG) • EGFR (d746-750) C797S (SignalChem, E10-122TG)

EGFR L858R = target: T2, EGFR L858R (Homo sapiens, UniProt P00533, L858R); experiment: Biochemical EGFR inhibition assay (Caliper mobility shift), EGFR L858R; conditions: biochemical Caliper mobility shift assay, EGFR L858R enzyme; read-out: Enz EGFR L858R IC50
T2 construct: purchased SignalChem E10-122BG
T2 sequence (P00533 25-1210 L858R): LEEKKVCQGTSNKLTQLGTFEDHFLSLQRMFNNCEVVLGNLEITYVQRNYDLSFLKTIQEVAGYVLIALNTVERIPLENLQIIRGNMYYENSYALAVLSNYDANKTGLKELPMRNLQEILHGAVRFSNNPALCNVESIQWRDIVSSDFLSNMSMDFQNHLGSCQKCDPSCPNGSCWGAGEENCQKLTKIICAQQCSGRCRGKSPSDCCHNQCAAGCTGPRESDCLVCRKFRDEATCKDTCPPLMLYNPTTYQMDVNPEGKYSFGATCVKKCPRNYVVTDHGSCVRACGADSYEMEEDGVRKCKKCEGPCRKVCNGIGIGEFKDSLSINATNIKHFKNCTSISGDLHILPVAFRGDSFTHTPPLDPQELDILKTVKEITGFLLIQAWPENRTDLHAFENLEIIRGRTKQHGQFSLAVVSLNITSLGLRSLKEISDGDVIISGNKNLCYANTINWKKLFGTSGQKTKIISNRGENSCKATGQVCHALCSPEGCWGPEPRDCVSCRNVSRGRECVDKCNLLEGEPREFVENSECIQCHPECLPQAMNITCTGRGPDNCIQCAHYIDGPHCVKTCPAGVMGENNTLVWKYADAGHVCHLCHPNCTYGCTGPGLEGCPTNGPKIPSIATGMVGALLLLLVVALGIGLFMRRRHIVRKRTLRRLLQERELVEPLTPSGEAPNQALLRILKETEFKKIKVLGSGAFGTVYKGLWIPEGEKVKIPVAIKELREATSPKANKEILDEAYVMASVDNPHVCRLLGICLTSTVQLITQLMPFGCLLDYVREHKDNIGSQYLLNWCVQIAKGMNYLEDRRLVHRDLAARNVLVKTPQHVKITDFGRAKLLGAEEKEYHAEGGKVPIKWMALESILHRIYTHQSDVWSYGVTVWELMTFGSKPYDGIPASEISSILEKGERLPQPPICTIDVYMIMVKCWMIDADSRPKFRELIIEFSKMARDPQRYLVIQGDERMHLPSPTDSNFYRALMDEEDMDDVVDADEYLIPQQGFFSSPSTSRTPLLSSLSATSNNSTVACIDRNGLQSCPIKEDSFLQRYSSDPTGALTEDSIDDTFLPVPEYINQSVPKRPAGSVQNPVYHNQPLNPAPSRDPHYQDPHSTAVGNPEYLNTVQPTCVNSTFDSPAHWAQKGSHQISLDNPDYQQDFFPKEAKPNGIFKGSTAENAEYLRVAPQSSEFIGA
How it was run: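 Kinase activity measured as phosphorylation of 2.5 µM 5-FAM-labelled peptide substrate in 100 mM HEPES pH 7.5, 10 mM MgCl2, 0.015% Brij-35, 1 mM DTT, 1.0% DMSO, at 1.0 mM ATP or ATP Km. Run at 25 °C to 10–20% conversion, stopped with EDTA; product resolved by mobility shift, apparent IC50 from percent activity vs log concentration.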

intracellular phosphorylation of EGFR (Tyr1068) in PC-9 cells, sequence (P00533 with tags, fused parts or gaps DEL746-750): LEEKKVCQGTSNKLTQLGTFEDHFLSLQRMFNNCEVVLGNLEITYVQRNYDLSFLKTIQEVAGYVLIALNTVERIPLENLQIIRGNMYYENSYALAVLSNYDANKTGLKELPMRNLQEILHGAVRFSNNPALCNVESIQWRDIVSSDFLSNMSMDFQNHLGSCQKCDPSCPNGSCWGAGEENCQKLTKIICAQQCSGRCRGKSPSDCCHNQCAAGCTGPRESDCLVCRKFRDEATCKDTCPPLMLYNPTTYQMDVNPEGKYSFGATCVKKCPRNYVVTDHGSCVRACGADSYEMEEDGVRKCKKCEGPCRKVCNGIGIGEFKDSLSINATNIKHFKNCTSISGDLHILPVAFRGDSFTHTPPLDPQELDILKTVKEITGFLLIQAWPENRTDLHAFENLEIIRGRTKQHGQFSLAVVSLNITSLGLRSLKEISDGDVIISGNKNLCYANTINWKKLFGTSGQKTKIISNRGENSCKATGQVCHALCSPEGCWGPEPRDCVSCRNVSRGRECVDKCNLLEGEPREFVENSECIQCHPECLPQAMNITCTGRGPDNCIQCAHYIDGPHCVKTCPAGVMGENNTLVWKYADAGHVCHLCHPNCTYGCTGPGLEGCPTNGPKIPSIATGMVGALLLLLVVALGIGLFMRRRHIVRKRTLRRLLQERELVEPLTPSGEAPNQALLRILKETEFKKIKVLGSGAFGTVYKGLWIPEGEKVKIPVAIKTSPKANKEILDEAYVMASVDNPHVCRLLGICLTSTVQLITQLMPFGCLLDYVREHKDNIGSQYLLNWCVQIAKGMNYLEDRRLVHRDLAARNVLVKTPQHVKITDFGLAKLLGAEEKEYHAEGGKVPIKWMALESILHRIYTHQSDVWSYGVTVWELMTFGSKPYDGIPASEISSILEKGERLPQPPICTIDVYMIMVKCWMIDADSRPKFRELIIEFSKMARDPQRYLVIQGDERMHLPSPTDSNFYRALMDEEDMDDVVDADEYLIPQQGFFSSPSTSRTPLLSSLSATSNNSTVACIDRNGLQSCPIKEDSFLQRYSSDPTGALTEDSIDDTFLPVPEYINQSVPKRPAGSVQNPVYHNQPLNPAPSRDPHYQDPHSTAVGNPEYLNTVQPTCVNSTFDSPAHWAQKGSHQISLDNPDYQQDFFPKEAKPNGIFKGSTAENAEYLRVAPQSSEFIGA

Structure (SMILES) | IC50 [1] [nM] | IC50 (EGFR (d746-750)) [nM] | IC50 (EGFR L858R) [nM]
COc1cc2ncnc(Nc3ccc4ncsc4c3)c2cc1-c1cnn(C2CCN(C)C[C@H]2F)c1 (single isomer, unassigned) [Example 166] | ≤ 10 | ≤ 10 | ≤ 10
Cn1cc(-c2cc(OC[C@H]3CCCO3)c3c(Nc4ccc5ncsc5c4)ncnc3c2)cn1 [Example 31, (R)-N-(7-(1-methyl-1H-pyrazol-4-yl)-5-((tetrahydrofuran-2-yl)methoxy)quinazolin-4-yl)benzo[d]thiazol-6-amine] | 10.1 to 50 | ≤ 10 | ≤ 10
Cn1cc(-c2cc(O[C@@H]3CC[C@H]3O)c3c(Nc4ccc5ncsc5c4)ncnc3c2)cn1 (single isomer, unassigned) [Example A53] | ≤ 10 | ≤ 10 | ≤ 10
CC(CN(C)C)Oc1cc(N2CC(C)OC(C)C2)cc2ncnc(Nc3ccc4ncsc4c3)c12 (single isomer, unassigned) [Example 150] | ≤ 10 | ≤ 10 | 10.1 to 50
COc1nn(C)cc1-c1cc(O[C@H]2CCN(C)C2=O)c2c(Nc3ccc4ncsc4c3)ncnc2c1 (single isomer, unassigned) [Example 74] | 10.1 to 50 | ≤ 10 | ≤ 10
COc1cc2ncnc(Nc3ccc4ncsc4c3)c2cc1NC(=O)C1CN(C)C1 [Example 402, N-(4-(benzo[d]thiazol-6-ylamino)-7-methoxyquinazolin-6-yl)-1-methylazetidine-3-carboxamide] | 10.1 to 50 | 10.1 to 50 | > 50.1
Cn1cc(-c2cc(OC3CCN(C4COC4)CC3)c3c(Nc4ccc5ncsc5c4F)ncnc3c2)cn1 [Example 315, 7-fluoro-N-(7-(1-methyl-1H-pyrazol-4-yl)-5-((1-(oxetan-3-yl)piperidin-4-yl)oxy)quinazolin-4-yl)benzo[d]thiazol-6-amine] | ≤ 10 | ≤ 10 | ≤ 10
C[C@@H]1OC[C@@H]1Oc1cc(-c2cnn(C)c2)cc2ncnc(Nc3ccc4ncsc4c3)c12 (racemic) [Example 9, cis-N-(7-(1-methyl-1H-pyrazol-4-yl)-5-((-2-methyloxetan-3-yl)oxy)quinazolin-4-yl)benzo[d]thiazol-6-amine] | 10.1 to 50 | ≤ 10 | ≤ 10
CN1CC[C@H](Oc2cc(-c3cnn(C)c3)cc3ncnc(Nc4ccc5ncsc5c4)c23)C1=O (single isomer, unassigned) [Example 23] | ≤ 10 | ≤ 10 | ≤ 10
C[C@@H](Oc1cc(N2CC3(COC3)C2)cc2ncnc(Nc3ccc4ncsc4c3)c12)C1COC1 [Example 204, (R)-N-(5-(1-(oxetan-3-yl)ethoxy)-7-(2-oxa-6-azaspiro[3.3]heptan-6-yl)quinazolin-4-yl)benzo[d]thiazol-6-amine] | ≤ 10 | ≤ 10 | ≤ 10
C[C@@H](Oc1cc(-c2cnn(C)c2)cc2ncnc(Nc3ccc4ncsc4c3F)c12)[C@H]1CCOC1 (single isomer, unassigned) [Example 88] | ≤ 10 | ≤ 10 | ≤ 10
CC(C)N1CC[C@@H](Oc2cc(-c3cnn(C)c3)cc3ncnc(Nc4ccc5ncsc5c4)c23)C1=O (single isomer, unassigned) [Example 63] | ≤ 10 | ≤ 10 | ≤ 10
CN1C[C@H](F)[C@H](Oc2cc(-c3cnn(C)c3)cc3ncnc(Nc4ccc5ncsc5c4)c23)C1 (single isomer, unassigned) [Example 380] | 10.1 to 50 | ≤ 10 | ≤ 10
C[C@@H](Oc1cc(N2CCN(C)CC2)cc2ncnc(Nc3ccc4ncsc4c3F)c12)[C@@H]1CCCO1 [Example 114, 7-fluoro-N-(7-(4-methylpiperazin-1-yl)-5-((R)-1-((S)-tetrahydrofuran-2-yl)ethoxy)quinazolin-4-yl)benzo[d]thiazol-6-amine] | 10.1 to 50 | ≤ 10 | ≤ 10
CN(C)[C@H]1CC[C@@H]1Oc1cc(-c2cnn(C)c2)cc2ncnc(Nc3ccc4ncsc4c3)c12 (single isomer, unassigned) [Example 154] | ≤ 10 | ≤ 10 | ≤ 10
CO[C@H]1COC[C@@H]1Oc1cc(-c2cnn(C)c2)cc2ncnc(Nc3ccc4ncsc4c3)c12 (single isomer, unassigned) [Example A32] | 10.1 to 50 | ≤ 10 | 10.1 to 50
Cn1cc(-c2cc(OC3CCN(CC(F)F)CC3)c3c(Nc4ccc5ncsc5c4F)ncnc3c2)cn1 [Example 310, N-(5-((1-(2,2-difluoroethyl)piperidin-4-yl)oxy)-7-(1-methyl-1H-pyrazol-4-yl)quinazolin-4-yl)-7-fluorobenzo[d]thiazol-6-amine] | ≤ 10 | ≤ 10 | ≤ 10
C[C@H]1COCC[C@@H]1Oc1cc(-c2cnn(C)c2)cc2ncnc(Nc3ccc4ncsc4c3)c12 (racemic) [Example 26, trans-racemic N-(7-(1-methyl-1H-pyrazol-4-yl)-5-(((3S,4S)-3-methyltetrahydro-2H-pyran-4-yl)oxy)quinazolin-4-yl)benzo[d]thiazol-6-amine] | ≤ 10 | ≤ 10 | ≤ 10
CC(C)N1CCC(Oc2cc(-c3cnn(C)c3)cc3ncnc(Nc4ccc5ncsc5c4)c23)C1=O (racemic) [Example 62, (rac)-3-((4-(benzo[d]thiazol-6-ylamino)-7-(1-methyl-1H-pyrazol-4-yl)quinazolin-5-yl)oxy)-1-isopropylpyrrolidin-2-one] | ≤ 10 | ≤ 10 | ≤ 10
COC[C@H](C)Oc1cc(-c2cnn(C)c2)cc2ncnc(Nc3ccc4ncsc4c3F)c12 [Example 139, (S)-7-fluoro-N-(5-((1-methoxypropan-2-yl)oxy)-7-(1-methyl-1H-pyrazol-4-yl)quinazolin-4-yl)benzo[d]thiazol-6-amine] | ≤ 10 | ≤ 10 | ≤ 10
COC[C@@H](C)Oc1cc(N2CCN(C)C[C@H]2C)cc2ncnc(Nc3ccc4ncsc4c3)c12 (single isomer, unassigned) [Example 212] | > 50.1 | 10.1 to 50 | 10.1 to 50
COc1cc(O[C@H](C)C2COC2)c2c(Nc3ccc4ncsc4c3F)ncnc2c1 (single isomer, unassigned) [Example 83] | ≤ 10 | ≤ 10 | ≤ 10
Cn1cc(-c2cc(O[C@@H]3CNC[C@H](F)C3)c3c(Nc4ccc5ncsc5c4)ncnc3c2)cn1 (racemic) [Example 329, cis-N-(5-(((3S,5R)-5-fluoropiperidin-3-yl)oxy)-7-(1-methyl-1H-pyrazol-4-yl)quinazolin-4-yl)benzo[d]thiazol-6-amine] | ≤ 10 | ≤ 10 | ≤ 10
CO[C@@H]1CNCC[C@H]1Oc1cc(-c2cnn(C)c2)cc2ncnc(Nc3ccc4ncsc4c3)c12 (single isomer, unassigned) [Example A42] | ≤ 10 | ≤ 10 | ≤ 10
COC[C@H](CN(C)C)Oc1cc(-c2cnn(C)c2)cc2ncnc(Nc3ccc4ncsc4c3)c12 [Example 141, (S)-N-(5-((1-(dimethylamino)-3-methoxypropan-2-yl)oxy)-7-(1-methyl-1H-pyrazol-4-yl)quinazolin-4-yl)benzo[d]thiazol-6-amine] | 10.1 to 50 | ≤ 10 | 10.1 to 50
C[C@H](CN(C)C)Oc1cc(N2CC[C@@H](C(C)(C)O)C2)cc2ncnc(Nc3ccc4ncsc4c3)c12 [Example 182, 2-((R)-1-(4-(benzo[d]thiazol-6-ylamino)-5-(((R)-1-(dimethylamino)propan-2-yl)oxy)quinazolin-7-yl)pyrrolidin-3-yl)propan-2-ol] | ≤ 10 | ≤ 10 | ≤ 10
COc1nn(C)cc1-c1cc(O[C@H]2COC[C@@H]2O)c2c(Nc3ccc4ncsc4c3)ncnc2c1 (single isomer, unassigned) [Example A48] | ≤ 10 | ≤ 10 | ≤ 10
CN1CC[C@@H](Nc2cc3c(Nc4ccc5ncsc5c4)ncnc3cc2-c2cnn(C)c2)[C@H](F)C1 (single isomer, unassigned) [Example 326] | ≤ 10 | ≤ 10 | ≤ 10

— patent US20260207602A1, “EGFR INHIBITORS” (Blueprint Medicines Corporation, priority 2022, published 2026)
